US9340577B2, “HLA binding motifs and peptides and their uses” (priority 1992, dated 2016)
No end group written: not given here.

Legend:
Experiment in all cases: biochemical
Format in all cases: binding
[1] = target: A*0206 (Homo sapiens, UniProt P04439, D140Y/D185E/D98H/E176V/E277Q/F33Y/G131W/G231S/I119V/I121R/I166T/I218V/L300P/L318F/N151K/N90K/P208A/P217A/Q86G/Q94H/R138H/R169H/T345S)
[2] = target: HLA-A*0201 (HLA-A2.1) (Homo sapiens, UniProt P04439, D140Y/D185E/D98H/E176V/E277Q/G131W/G231S/I119V/I121R/I166T/I218V/L300P/L318F/N151K/N90K/P208A/P217A/Q86G/Q94H/R138H/R169H/T345S)
[3] = target: A*6802 (Homo sapiens, UniProt P04439, A269V/D140Y/D185E/E176V/E277Q/E87N/F33Y/G231S/I121R/I166T/I218V/L180W/L300P/L318F/N151K/P208A/P217A/Q86R/R138H/R169H/S129P/T345S/V36M)
[4] = target: A*0203 (Homo sapiens, UniProt P04439, A173T/D140Y/D185E/D98H/E277Q/G131W/G231S/I119V/I121R/I166T/I218V/L180W/L300P/L318F/N151K/N90K/P208A/P217A/Q86G/Q94H/R138H/R169H/T345S)
[5] = target: A*0202 (Homo sapiens, UniProt P04439, D140Y/D185E/D98H/E176V/E277Q/G131W/G231S/I119L/I121R/I166T/I218V/L180W/L300P/L318F/N151K/N90K/P208A/P217A/Q67R/Q86G/Q94H/R138H/R169H/T345S)

Compound	IC50 [1] [nM]	IC50 [2] [nM]	IC50 [3] [nM]	IC50 [4] [nM]	IC50 [5] [nM]
ALYWYRTGI [Peptide 86.0181]	4640	555	4850	64	24
RMLQQLLFV [Peptide 1525.16]	14	21	> 20000	6.8	21
RLTVTTITVYA [Peptide 9013.0305]	1100	243	53	205	23
CSCC[C@H](NC(=O)[C@@H](N)CCCNC(=N)N)C(=O)N1CCC[C@H]1C(=O)N[C@@H](CCC(=O)O)C(=O)N[C@@H](C)C(=O)N[C@@H](C)C(=O)N1CCC[C@H]1C(=O)N1CCC[C@H]1C(=O)N[C@H](C(=O)N[C@H](C(=O)O)C(C)C)C(C)C [Peptide 1317.29]	259	55	> 20000	6.3	62
GLFQQSTQEL [Peptide 9013.0176]	> 20000	1360	> 20000	48	6.2
FLSHVKIPV [Peptide 1578.55]	91	41	60	9.8	4
VLEGKEVLLLV [Peptide 9013.0273]	4610	1840	> 20000	272	32
IIYPNASLV [Peptide 9013.0029]	152	230	409	4	24
GTQQATPGPV [Peptide 9013.0142]	> 20000	> 20000	> 20000	36	> 20000
QLSNGNRTLV [Peptide 9013.0229]	> 20000	> 20000	> 20000	146	66
ALAEAMSQA [Peptide 1539.04]	17	15	3020	20	1.9
NLNLSCHAV [Peptide 9013.0054]	7130	633	2200	39	15
VQWAFDNEL [Peptide 86.0182]	256	3230	> 20000	449	319
YLYYRPGVNL [Peptide 9013.0209]	940	54	953	2.8	2.2
LIQPFILYA [Peptide 1578.07]	71	124	8630	46	70
FLSGCVISYV [Peptide 1578.32]	67	43	102	7.4	2.7
KTITVSAEV [Peptide 9013.0083]	79	971	15	2.6	42
CC[C@H](C)[C@H](N)C(=O)N[C@@H](CCSC)C(=O)N[C@H](C(=O)NCC(=O)N[C@H](C(=O)N[C@@H](CC(C)C)C(=O)N[C@H](C(=O)NCC(=O)N[C@H](C(=O)N[C@@H](C)C(=O)N[C@H](C(=O)O)C(C)C)C(C)C)C(C)C)C(C)C)[C@@H](C)CC [Peptide 9013.0346]	61	75	9000	55	18
SLNRSDPVT [Peptide 9013.0099]	> 20000	> 20000	> 20000	2490	121
RMLQQLLFI [Peptide 1525.12]	16	15	18700	12	128

Compound	IC50 [1] [nM]	IC50 [2] [nM]	IC50 [3] [nM]	IC50 [4] [nM]	IC50 [5] [nM]
YVIGTQQAV [Peptide 9013.0024]	84	160	3	6.2	3.2
RLLQQLLFI [Peptide 1525.10]	19	27	> 20000	46	70
RTLTLLSVV [Peptide 9013.0075]	88	505	> 20000	300	6020
YVSGANLNL [Peptide 9013.0100]	230	6160	374	75	13
PQYSWRINGV [Peptide 9013.0235]	> 20000	> 20000	> 20000	25	1330
MTRNPPVPV [Peptide 1539.02]	> 20000	9170	117	35	1140
CC[C@H](C)[C@H](NC(=O)CNC(=O)[C@@H](NC(=O)[C@@H](NC(=O)[C@H](C)NC(=O)CN)[C@@H](C)O)C(C)C)C(=O)N[C@@H](CCSC)C(=O)N[C@H](C(=O)NCC(=O)N[C@H](C(=O)N[C@H](C(=O)O)C(C)C)C(C)C)[C@@H](C)CC [Peptide 9013.0342]	4530	> 20000	671	341	7520
ALYWYRTGM [Peptide 86.0189]	15600	1600	> 20000	57	13
IIQNDTGFYV [Peptide 9013.0146]	201	155	2600	548	25
ALYWYRTGL [Peptide 1578.30]	11500	5070	> 20000	23	8.2
NLAEGKEVL [Peptide 9013.0016]	> 20000	3840	> 20000	293	14
YTCGIQNSV [Peptide 9013.0096]	342	1970	140	310	71
QQSTQELFV [Peptide 9013.0056]	593	1590	> 20000	409	163
YTNWSEIYI [Peptide 1578.56]	216	61	5	47	3.6
KLTFLCVTL [Peptide 1516.14]	123	19	> 20000	41	3
ALYWFRTAM [Peptide 86.0195]	13900	1480	> 20000	214	17
AVAFTCEPEV [Peptide 9013.0155]	199	7860	13400	54	233
FLVAFKQFL [Peptide 1578.42]	81	55	1400	4.7	0.43
RILQHLLFA [Peptide 1525.24]	11	160	> 20000	51	220
